According to ChEMBL document CHEMBL5625234, “Magic shotgun approach to anti-inflammatory pharmacotherapy: Synthesis of novel thienopyrimidine monomers/heterodimer as dual COX-2 and 15-LOX inhibitors endowed with potent antioxidant activity” (Eur J Med Chem, 2023):

How the values were obtained:
RAW264.7 [1] = assay: cells; conditions: Mus musculus
[2] = Inhibition of soybean 15-LOX using arachidonic acid/linolenic acid as substrate preincubated for 5 mins followed by substrate addition and measured after 10 mins by absorbance based assay; design: species or system Glycine max
[3] = target: T1, Prostaglandin G/H synthase 1 (Ovis aries, UniProt P05979); assay: Inhibition of ovine COX-1 using arachidonic acid as substrate preincubated for 10 mins followed by substrate addition and measured after 2 mins by ELISA
T1 sequence (P05979 whole entry): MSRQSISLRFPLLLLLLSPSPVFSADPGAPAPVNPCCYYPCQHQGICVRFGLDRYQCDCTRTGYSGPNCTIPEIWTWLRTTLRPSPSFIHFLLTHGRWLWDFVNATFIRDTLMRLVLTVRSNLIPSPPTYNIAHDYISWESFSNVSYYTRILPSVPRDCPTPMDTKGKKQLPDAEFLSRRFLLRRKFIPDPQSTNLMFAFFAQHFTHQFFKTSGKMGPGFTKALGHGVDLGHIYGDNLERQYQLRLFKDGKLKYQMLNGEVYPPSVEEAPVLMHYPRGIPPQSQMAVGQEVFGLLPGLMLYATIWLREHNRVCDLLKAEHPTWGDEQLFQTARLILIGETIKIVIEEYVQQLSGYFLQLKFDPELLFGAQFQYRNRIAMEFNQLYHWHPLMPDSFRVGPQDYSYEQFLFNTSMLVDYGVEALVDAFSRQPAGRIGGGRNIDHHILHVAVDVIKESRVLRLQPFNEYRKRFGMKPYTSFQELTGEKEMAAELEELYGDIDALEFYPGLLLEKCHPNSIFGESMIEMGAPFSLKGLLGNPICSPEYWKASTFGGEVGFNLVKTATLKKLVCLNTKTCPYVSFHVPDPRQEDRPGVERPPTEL

[4] = target: T2, Polyunsaturated fatty acid lipoxygenase ALOX15 (Homo sapiens, UniProt P16050); assay: Inhibition of 15-LOX (unknown origin) using linoleic acid as substrate incubated for 5 mins by absorbance based assay
T2 sequence (P16050 whole entry): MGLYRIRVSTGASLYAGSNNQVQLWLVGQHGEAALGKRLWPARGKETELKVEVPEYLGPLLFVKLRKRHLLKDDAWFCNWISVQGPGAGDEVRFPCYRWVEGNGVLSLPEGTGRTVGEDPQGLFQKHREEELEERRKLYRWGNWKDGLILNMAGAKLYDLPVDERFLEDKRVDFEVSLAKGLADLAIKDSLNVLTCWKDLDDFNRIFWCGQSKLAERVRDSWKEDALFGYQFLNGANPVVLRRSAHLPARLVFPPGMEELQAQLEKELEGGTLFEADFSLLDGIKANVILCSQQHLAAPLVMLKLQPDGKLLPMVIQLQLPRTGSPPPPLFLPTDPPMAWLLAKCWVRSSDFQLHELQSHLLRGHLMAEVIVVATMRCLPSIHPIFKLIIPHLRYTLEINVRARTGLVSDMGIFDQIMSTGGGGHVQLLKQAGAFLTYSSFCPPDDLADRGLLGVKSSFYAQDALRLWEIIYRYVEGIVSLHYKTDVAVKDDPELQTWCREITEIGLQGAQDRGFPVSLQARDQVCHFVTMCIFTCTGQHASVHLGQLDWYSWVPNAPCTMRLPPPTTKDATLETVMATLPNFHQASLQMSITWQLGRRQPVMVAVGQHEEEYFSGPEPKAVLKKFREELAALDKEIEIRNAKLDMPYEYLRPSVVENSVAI

RAW264.7 [5] = assay: cells; conditions: Mus musculus; remark: listed apart in the source
RAW264.7 [6] = assay: cells; conditions: Mus musculus; remark: listed apart in the source
[7] = target: T3, Prostaglandin G/H synthase 2 (Ovis aries, UniProt P79208); assay: Inhibition of ovine COX-2 using arachidonic acid as substrate preincubated for 5 mins followed by substrate addition and measured after 2 mins by colorimetric assay
T3 sequence (P79208 whole entry): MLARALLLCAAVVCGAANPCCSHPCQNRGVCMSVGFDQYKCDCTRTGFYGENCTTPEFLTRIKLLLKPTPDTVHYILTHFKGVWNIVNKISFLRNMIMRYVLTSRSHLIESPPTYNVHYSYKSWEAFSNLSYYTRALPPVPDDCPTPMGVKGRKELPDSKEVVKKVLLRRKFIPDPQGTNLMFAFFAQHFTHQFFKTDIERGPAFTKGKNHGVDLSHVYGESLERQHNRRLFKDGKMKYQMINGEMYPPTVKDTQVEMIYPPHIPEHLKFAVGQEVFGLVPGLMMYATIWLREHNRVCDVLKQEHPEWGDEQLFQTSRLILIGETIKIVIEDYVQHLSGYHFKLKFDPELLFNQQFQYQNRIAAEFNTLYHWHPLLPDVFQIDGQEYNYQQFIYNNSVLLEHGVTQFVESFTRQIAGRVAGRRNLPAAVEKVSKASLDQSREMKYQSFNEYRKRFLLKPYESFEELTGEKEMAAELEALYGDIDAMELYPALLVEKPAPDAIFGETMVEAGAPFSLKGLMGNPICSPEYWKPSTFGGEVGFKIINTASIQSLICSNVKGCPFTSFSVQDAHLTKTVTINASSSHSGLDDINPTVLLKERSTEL

Ovis aries = species: Ovis aries; assay: Selectivity index, ratio of IC50 for inhibition of ovine COX-1 to IC50 for inhibition of ovine COX-2
RAW264.7 [8] = assay: cells; conditions: Mus musculus; remark: listed apart in the source
[9] = Inhibition of soybean 15-LOX using arachidonic acid as substrate preincubated with compound followed by substrate addition and measured after 5 mins by absorbance based microplate reader; design: species or system Glycine max
[10] = target: T4, Prostaglandin G/H synthase 2 (Homo sapiens, UniProt P35354); assay: Inhibition of human COX-2 using arachidonic acid as substrate incubated for 30 secs by ELISA
T4 sequence (P35354 whole entry): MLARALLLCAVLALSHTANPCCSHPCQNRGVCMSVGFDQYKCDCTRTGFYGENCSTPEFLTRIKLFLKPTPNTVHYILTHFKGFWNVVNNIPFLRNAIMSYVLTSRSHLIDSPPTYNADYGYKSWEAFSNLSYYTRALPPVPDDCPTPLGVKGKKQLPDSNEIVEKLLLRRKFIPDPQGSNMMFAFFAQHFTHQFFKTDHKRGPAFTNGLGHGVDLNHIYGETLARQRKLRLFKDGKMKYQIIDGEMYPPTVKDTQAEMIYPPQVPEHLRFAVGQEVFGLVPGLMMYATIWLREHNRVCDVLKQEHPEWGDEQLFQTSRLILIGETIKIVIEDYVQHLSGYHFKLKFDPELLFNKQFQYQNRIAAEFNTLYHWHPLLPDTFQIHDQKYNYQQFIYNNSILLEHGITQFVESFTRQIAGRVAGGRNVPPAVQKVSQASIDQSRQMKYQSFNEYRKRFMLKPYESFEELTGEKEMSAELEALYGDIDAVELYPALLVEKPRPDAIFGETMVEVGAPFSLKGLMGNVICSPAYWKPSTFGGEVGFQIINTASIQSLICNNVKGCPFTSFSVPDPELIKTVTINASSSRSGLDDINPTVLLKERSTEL

[11] = target: T4, Prostaglandin G/H synthase 2; assay: Inhibition of human COX-2
[12] = target: COX-1/COX-2 (Homo sapiens) (UniProt P35354+P23219); assay: Selectivity index, ratio of IC50 for inhibition of human COX-1 to IC50 for inhibition of human COX-2; assay type: protein assay
Sequence of COX-1/COX-2 (Homo sapiens) (P23219 whole entry, looked up, one chain of several): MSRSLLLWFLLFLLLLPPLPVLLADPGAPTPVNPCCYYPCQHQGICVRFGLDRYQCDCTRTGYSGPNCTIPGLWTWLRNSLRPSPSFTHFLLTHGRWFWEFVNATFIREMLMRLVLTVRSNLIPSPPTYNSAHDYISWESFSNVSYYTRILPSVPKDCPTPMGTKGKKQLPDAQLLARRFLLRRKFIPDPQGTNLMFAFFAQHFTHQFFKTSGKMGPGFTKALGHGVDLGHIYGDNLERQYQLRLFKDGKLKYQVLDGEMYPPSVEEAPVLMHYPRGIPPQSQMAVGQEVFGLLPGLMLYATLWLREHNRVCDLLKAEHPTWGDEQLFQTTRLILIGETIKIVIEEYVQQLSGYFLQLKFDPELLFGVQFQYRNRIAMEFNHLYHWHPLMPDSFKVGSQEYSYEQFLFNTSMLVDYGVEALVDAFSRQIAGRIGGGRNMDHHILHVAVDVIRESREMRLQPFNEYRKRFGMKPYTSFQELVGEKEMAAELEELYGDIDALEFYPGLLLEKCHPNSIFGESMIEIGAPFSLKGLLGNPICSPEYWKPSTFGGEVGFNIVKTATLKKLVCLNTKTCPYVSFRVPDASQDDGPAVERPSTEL

| SMILES | IC50 (RAW264.7 [1]) [µM] | IC50 [2] [µM] | IC50 [3] [µM] | also measured |
| --- | --- | --- | --- | --- |
| COc1ccc(-c2nc(Nc3ccc(Br)cc3)c3c4c(sc3n2)CCCC4)cc1 | > 100 | 2.4 | 9.53 |  |
| CCn1c(-n2cc(/C=N/N=c3\scc(-c4ccc(Br)cc4)n3-c3ccccc3)c(-c3ccc(Cl)cc3)n2)nc2[nH]c(=O)n(C)c(=O)c21 |  |  |  | IC50 [4]: 1760 nM |
| COc1cc(-c2nc(Nc3ccc(F)cc3)c3c4c(sc3n2)CCCC4)cc(OC)c1OC | > 100 | 2.29 | 10.9 | IC50 (RAW264.7 [5]): 168 µM |
| Cc1ccc(Nc2nc(-c3ccc(Cl)cc3)nc3sc4c(c23)CCCC4)cc1 | > 100 | 4.49 | 8.2 | IC50 (RAW264.7 [6]): > 100 µM |
| Cc1ccc(Nc2nc(-c3ccc([N+](=O)[O-])cc3)nc3sc4c(c23)CCCC4)cc1 | > 100 | 2.76 | 8.2 |  |
| Clc1ccc(-c2nn(-c3ccccc3)cc2/C=N/Nc2ncnc3c(-c4ccccc4)csc23)cc1 |  |  |  | IC50 [7]: 48 nM; Ratio IC50 (Ovis aries): 248 |
| Fc1ccc(Nc2nc(-c3ccc(Cl)cc3)nc3sc4c(c23)CCCC4)cc1 |  | 4.81 | 5.82 | IC50 (RAW264.7 [8]): > 100 µM |
| Clc1ccc(-c2nc(Nc3ccc(Br)cc3)c3c4c(sc3n2)CCCC4)cc1 | > 100 | 2.11 | 9.12 |  |
| COc1ccc(-c2nc(NNc3ncnc4sc5c(c34)CCCC5)c3c4c(sc3n2)CCCC4)cc1 | > 100 | 1.86 | 11.3 |  |
| O=[N+]([O-])c1ccc(-c2nc(Nc3ccc(F)cc3)c3c4c(sc3n2)CCCC4)cc1 | > 100 | 3.63 | 7.18 |  |
| COc1cc(/C=C2\S/C(=N/c3nnc(C)s3)NC2=O)cc(OC)c1OC |  | 10.9 | 12.3 |  |
| COc1ccc(-c2nc(Nc3ccc(F)cc3)c3c4c(sc3n2)CCCC4)cc1 | > 100 | 1.97 | 11.4 | IC50 (RAW264.7 [8]): > 100 µM |
| O=C(C/C(=C/c1cccc([N+](=O)[O-])c1)c1n[nH]c(=S)o1)c1ccc(Cl)c(Cl)c1 |  |  | 10.4 | IC50 [9]: 1630 nM |
| O=[N+]([O-])c1ccc(-c2nc(Nc3ccc(Br)cc3)c3c4c(sc3n2)CCCC4)cc1 | > 100 | 3.41 | 9.87 | IC50 (RAW264.7 [5]): > 100 µM |
| O=[N+]([O-])c1ccc(-c2nc(Nc3cccc(Br)c3)c3c4c(sc3n2)CCCC4)cc1 | > 100 | 3.99 | 6.49 |  |
| COc1cc(-c2nc(Nc3ccc(C)cc3)c3c4c(sc3n2)CCCC4)cc(OC)c1OC | > 100 | 2.66 | 8.5 | IC50 (RAW264.7 [6]): > 100 µM; IC50 (RAW264.7 [8]): > 100 µM |
| Clc1ccc(-c2nc(Nc3cccc(Br)c3)c3c4c(sc3n2)CCCC4)cc1 | > 100 | 3.36 | 8.55 | IC50 (RAW264.7 [6]): > 100 µM |
| CS(=O)(=O)c1ccc(C2CN(c3ccc(C(F)(F)F)cc3)N=N2)cc1 (centres undefined) |  |  |  | IC50 [10]: 226 nM |
| CSc1nnc2n(Cc3ccccc3)c(=O)c3c4c(sc3n12)CCCC4 |  |  |  | IC50 [11]: 520 nM; Ratio IC50 [12]: 192 |
| O=c1[nH]/c(=C\c2nnc(-c3ccc(O)cc3)s2)s/c1=C\c1ccc(Cl)c(Cl)c1 |  | 11.9 | 15.4 |  |
| CCn1c(-n2cc(/C=N/N=c3\scc(-c4ccc(Br)cc4)n3-c3ccccc3)c(-c3ccc(OC)cc3)n2)nc2[nH]c(=O)n(C)c(=O)c21 |  |  |  | IC50 [4]: 1820 nM |
